Data taken from patent US11053204B2, “Pyrimidinyloxy benzene derivatives as herbicides” (FMC Corporation, priority 2015, dated 2021).

Columns and labels:
Format in all cases: in vivo
[1] = tested on: Italian ryegrass (Lolium multiflorum); assay: Test A preemergence, visual injury rating; details: Lolium multiflorum, pre-emergence, 240 h, 0 to 100 scale (0 no effect, 100 complete control), read-out: Ryegrass, Italian plant response rating
Summary of the method: (§1)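 Greenhouse pot test, loam/sand soil. Formulation: non-phytotoxic solvent mix plus surfactant. Pre: directed spray onto soil after sowing. Post: plants at 1–2 leaf, 2–10 cm. Rated visually vs untreated controls at ~10 d, 0 (no effect) to 100 (complete control).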

[2] = tested on: barnyardgrass (Echinochloa crus-galli); assay: Test A preemergence, visual injury rating; details: Echinochloa crus-galli, pre-emergence, 240 h, 0 to 100 scale (0 no effect, 100 complete control), read-out: Barnyardgrass plant response rating
Summary of the method: as §1

[3] = tested on: giant foxtail (Setaria faberii); assay: Test A preemergence, visual injury rating; details: Setaria faberi, pre-emergence, 240 h, 0 to 100 scale (0 no effect, 100 complete control), read-out: Foxtail, Giant plant response rating
Summary of the method: as §1

kochia (Kochia scoparia) [4] = assay: Test A preemergence, visual injury rating; details: Bassia scoparia, pre-emergence, 240 h, 0 to 100 scale (0 no effect, 100 complete control), read-out: Kochia plant response rating
Summary of the method: as §1

[5] = tested on: pigweed (Amaranthus retroflexus); assay: Test A preemergence, visual injury rating; details: Amaranthus retroflexus, pre-emergence, 240 h, 0 to 100 scale (0 no effect, 100 complete control), read-out: Pigweed plant response rating
Summary of the method: as §1

[6] = tested on: ragweed (common ragweed, Ambrosia elatior); assay: Test A preemergence, visual injury rating; details: Ambrosia artemisiifolia, pre-emergence, 240 h, 0 to 100 scale (0 no effect, 100 complete control), read-out: Ragweed plant response rating
Summary of the method: as §1

[7] = tested on: chickweed (common chickweed, Stellaria media); assay: Test C postemergence, plant response rating; details: Stellaria media, post-emergence
Summary of the method: (§2)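 Preemergence: seeds sown in loam–sand blend or silt loam and sprayed with test chemicals in a non-phytotoxic surfactant-containing solvent. Postemergence: potted plants at 2–18 cm (1–4-leaf stage) sprayed with the same formulation. After 13–15 d in greenhouse, visual rating versus controls on 0 (no effect) to 100 (complete control) scale.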

corn (Zea mays) = assay: Test C postemergence, plant response rating; details: Zea mays, post-emergence
Summary of the method: as §2

[8] = tested on: crabgrass, large (large crabgrass, Digitaria sanguinalis); assay: Test C postemergence, plant response rating; details: Digitaria sanguinalis, post-emergence
Summary of the method: as §2

[9] = tested on: galium (catchweed bedstraw, Galium aparine); assay: Test C postemergence, plant response rating; details: Galium, post-emergence
Summary of the method: as §2

kochia (Kochia scoparia) [10] = assay: Test C postemergence, plant response rating; details: Bassia scoparia, post-emergence
Summary of the method: as §2

[11] = tested on: lambsquarters (Chenopodium album); assay: Test C postemergence, plant response rating; details: Chenopodium album, post-emergence
Summary of the method: as §2

[12] = tested on: nutsedge, yellow (yellow nutsedge, Cyperus esculentus); assay: Test C postemergence, plant response rating; details: Cyperus, post-emergence
Summary of the method: as §2

[13] = tested on: oat, wild (wild oat Avena fatua); assay: Test C postemergence, plant response rating; details: Avena fatua, post-emergence
Summary of the method: as §2

[14] = tested on: ragweed (common ragweed, Ambrosia elatior); assay: Test C postemergence, plant response rating; details: Ambrosia artemisiifolia, post-emergence
Summary of the method: as §2

[15] = tested on: ryegrass, Italian (Italian ryegrass, Lolium multiflorum); assay: Test C postemergence, plant response rating; details: Lolium multiflorum, post-emergence
Summary of the method: as §2

soybean (Glycine max) = assay: Test C postemergence, plant response rating; details: Glycine max, post-emergence
Summary of the method: as §2

[16] = tested on: waterhemp (common waterhemp, Amaranthus rudis); assay: Test C postemergence, plant response rating; details: for Plant response rating, Waterhemp: scale 0 to 100; for Waterhemp plant response rating: scale 0 to 100 (0 no effect, 100 complete control)
Summary of the method: as §2

[17] = 62 g ai/ha, scale 0 to 100 (0 no effect, 100 complete control)
[18] = 125 g ai/ha, scale 0 to 100 (0 no effect, 100 complete control)

C=CCCOC(=O)c1c(Br)cccc1Oc1ncc(Cl)cn1 [Compound 21, 3-buten-1-yl 2-bromo-6-[(5-chloro-2-pyrimidinyl)oxy]benzoate]
pest or weed control at 125 g/ha ([1]; 125 g ai/ha): 30%
pest or weed control at 500 g/ha ([1]; 500 g ai/ha): 90%
pest or weed control at 125 g/ha ([2]; 125 g ai/ha): 100%
pest or weed control at 500 g/ha ([2]; 500 g ai/ha): 100%
pest or weed control at 125 g/ha ([3]; 125 g ai/ha): 100%
pest or weed control at 500 g/ha ([3]; 500 g ai/ha): 100%
pest or weed control at 125 g/ha (kochia (Kochia scoparia) [4]; 125 g ai/ha): 40%
pest or weed control at 500 g/ha (kochia (Kochia scoparia) [4]; 500 g ai/ha): 100%
pest or weed control at 125 g/ha ([5]; 125 g ai/ha): 100%
pest or weed control at 500 g/ha ([5]; 500 g ai/ha): 100%
pest or weed control at 125 g/ha ([6]; 125 g ai/ha): 0%
pest or weed control at 500 g/ha ([6]; 500 g ai/ha): 0%
pest or weed control at 16 g/ha ([7]; 16 g ai/ha, scale 0 to 100): 40%
pest or weed control at 31 g/ha ([7]; 31 g ai/ha, scale 0 to 100): 50%
pest or weed control at 62 g/ha [7, 17]: 50%
pest or weed control at 125 g/ha [7, 18]: 80%
Corn plant response rating (crop injury, 0 = no effect, 100 = complete kill) at 16 g/ha (corn (Zea mays); 16 g ai/ha, scale 0 to 100): 5%
Corn plant response rating (crop injury, 0 = no effect, 100 = complete kill) at 31 g/ha (corn (Zea mays); 31 g ai/ha, scale 0 to 100): 5%
plant injury at 62 g/ha (corn (Zea mays); [17]): 15%
plant injury at 125 g/ha (corn (Zea mays); [18]): 20%
pest or weed control at 16 g/ha ([8]; 16 g ai/ha, scale 0 to 100): 10%
pest or weed control at 31 g/ha ([8]; 31 g ai/ha, scale 0 to 100): 20%
pest or weed control at 62 g/ha [8, 17]: 25%
pest or weed control at 125 g/ha [8, 18]: 35%
pest or weed control at 16 g/ha ([9]; 16 g ai/ha, scale 0 to 100): 55%
pest or weed control at 31 g/ha ([9]; 31 g ai/ha, scale 0 to 100): 80%
pest or weed control at 62 g/ha [9, 17]: 75%
pest or weed control at 125 g/ha [9, 18]: 80%
pest or weed control at 16 g/ha (kochia (Kochia scoparia) [10]; 16 g ai/ha, scale 0 to 100): 60%
pest or weed control at 31 g/ha (kochia (Kochia scoparia) [10]; 31 g ai/ha, scale 0 to 100): 50%
pest or weed control at 62 g/ha (kochia (Kochia scoparia) [10]; [17]): 90%
pest or weed control at 125 g/ha (kochia (Kochia scoparia) [10]; [18]): 90%
pest or weed control at 16 g/ha ([11]; 16 g ai/ha, scale 0 to 100): 65%
pest or weed control at 31 g/ha ([11]; 31 g ai/ha, scale 0 to 100): 60%
pest or weed control at 62 g/ha [11, 17]: 65%
pest or weed control at 125 g/ha [11, 18]: 85%
pest or weed control at 16 g/ha ([12]; 16 g ai/ha, scale 0 to 100): 0%
pest or weed control at 31 g/ha ([12]; 31 g ai/ha, scale 0 to 100): 0%
pest or weed control at 62 g/ha [12, 17]: 5%
pest or weed control at 125 g/ha [12, 18]: 10%
pest or weed control at 16 g/ha ([13]; 16 g ai/ha, scale 0 to 100): 0%
pest or weed control at 31 g/ha ([13]; 31 g ai/ha, scale 0 to 100): 0%
pest or weed control at 62 g/ha [13, 17]: 5%
pest or weed control at 125 g/ha [13, 18]: 5%
pest or weed control at 16 g/ha ([14]; 16 g ai/ha, scale 0 to 100): 10%
pest or weed control at 31 g/ha ([14]; 31 g ai/ha, scale 0 to 100): 10%
pest or weed control at 62 g/ha [14, 17]: 45%
pest or weed control at 125 g/ha [14, 18]: 55%
pest or weed control at 16 g/ha ([15]; 16 g ai/ha, scale 0 to 100): 0%
pest or weed control at 31 g/ha ([15]; 31 g ai/ha, scale 0 to 100): 0%
pest or weed control at 62 g/ha [15, 17]: 0%
pest or weed control at 125 g/ha [15, 18]: 15%
plant injury at 16 g/ha (soybean (Glycine max); 16 g ai/ha, scale 0 to 100): 30%
plant injury at 31 g/ha (soybean (Glycine max); 31 g ai/ha, scale 0 to 100): 40%
plant injury at 62 g/ha (soybean (Glycine max); [17]): 60%
plant injury at 125 g/ha (soybean (Glycine max); [18]): 60%
Plant response rating, Waterhemp ([16]; 16 g ai/ha): 75
Plant response rating, Waterhemp ([16]; 31 g ai/ha): 85
Waterhemp plant response rating ([16]; 62 g ai/ha): 90
Waterhemp plant response rating ([16]; 125 g ai/ha): 85
